Source: PMC4338079, “N-Terminus Three Residues Deletion Mutant of Human Beta-Defensin 3 with Remarkably Enhanced Salt-Resistance” (PLoS ONE, 2015)
Where a SMILES comes first, the peptide text is derived from it. Where no end group is shown, it is not given here.

Key:
[1] = system: K. pneumonia ATCC 700603; type: cell-based, Klebsiella pneumonia; settings: 10^5-10^6 CFU/ml in PBS pH 7.2, 3 h at 37°C, colony count, mean ± SD of three
From the text: (§1) Ten strains obtained from the American Type Culture Collection (ATCC) and China Center of Industrial Culture Collection (CICC) were used for antibacterial and salt resistance assays. The Gram-positive strains were Staphyloccocus aureus ATCC 29213, Enterococcus faecalis ATCC 29212, Staphylococcus epidermidis ATCC 12228, Enterococcus faecium ATCC 6057, and Enterococcus faecium ATCC 19434. The Gram-negative strains were Escherichia coli ATCC 25922, Pseudomonas aeruginosa ATCC 15442, Klebsiella pneumonia ATCC 700603, Shigella flexneri CICC 21534, and Shigella sonnei CICC 21535. Fifteen E. coli clinical isolates were collected from 302 Military Hospital of China. The Gram-positive and Gram-negative strains were grown in Luria—Bertani (LB) and Mueller—Hinton (MH) media at 37°C, respectively.
(§2) The antibacterial activities of these peptides were determined in a modified microdilution assay as described previously. […] The five concentrations of the peptides were added to 200 μl of the bacterial suspension and then incubated at 37°C for 3 h before CFU numbers were determined. […] The cells were serially diluted in the same buffer, plated on Luria broth plates, and then incubated for 18 h at 37°C before the resulting colonies were counted. The bactericidal activity was expressed as the ratio of colonies counted to the number of colonies on a control plate. […]

[2] = system: Vero cells
Experimental: Vero cells suspended in Dulbecco’s modified Eagle’s medium (DMEM)-high glucose culture medium supplemented with 10% (vol/vol) fetal calf serum and 1% (vol/vol) penicillin—streptomycin were seeded on a 96-well microtiter plate at a density of 1×10^4 cells per well. After incubation overnight at 37°C under 5% CO2 in a humidified atmosphere, the cells were washed twice with buffer (pH 7.4) containing 20 mM HEPES and 150 mM NaCl. Defensins were diluted in the same wash buffer, and 200 μl was added per well. The buffer was discarded after 2 h of incubation at 37°C under 5% CO2. Subsequently, 200 μl of DMEM and 50 μl of 3-(4,5-dimethylthiazol-2-yl)-2,5-diphenyltetrazolium bromide (MTT, 5 mg/ml) were added. DMEM (100%) and MTT were discarded, and 200 μl of DMSO was added in the plate after 6 h of incubation at 37°C under 5% CO2. The absorbance was measured at 490 nm with a microtiter plate reader.

[3] = system: S. aureus ATCC 29213; type: cell-based, Staphyloccocus aureus; settings: 10^5-10^6 CFU/ml in PBS pH 7.2, 3 h at 37°C, colony count, mean ± SD of three
From the text: as §1, §2

[4] = system: S. epidermidis ATCC 12228; type: cell-based, Staphylococcus epidermidis; settings: 10^5-10^6 CFU/ml in PBS pH 7.2, 3 h at 37°C, colony count, mean ± SD of three
From the text: as §1, §2

[5] = system: E. faecium ATCC 6057; type: cell-based, Enterococcus faecium; settings: 10^5-10^6 CFU/ml in PBS pH 7.2, 3 h at 37°C, colony count, mean ± SD of three
From the text: as §1, §2

[6] = system: E. faecium ATCC 19434; type: cell-based, Enterococcus faecium; settings: 10^5-10^6 CFU/ml in PBS pH 7.2, 3 h at 37°C, colony count, mean ± SD of three
From the text: as §1, §2

[7] = system: fifteen E. coli clinical isolates; experiment: Salt resistance assay against clinical isolates; type: cell-based, Escherichia coli; settings: of 15 E. coli clinical isolates, peptide 10 μg/ml
From the text: as §1
(§3) The antibacterial activities of these peptides were determined in a modified microdilution assay as described previously. The strains were grown under aerobic condition in MH or LB broth at 37°C and then harvested in the exponential phase of growth (OD600 ≈ 0.6. OD, optical density). After dilution, the test strains were adjusted to 10^5 to 10^6 CFU bacteria per ml in phosphate-buffered saline solution (pH 7.2). The five concentrations of the peptides were added to 200 μl of the bacterial suspension and then incubated at 37°C for 3 h before CFU numbers were determined. Phosphate buffer served as the negative control. The cells were serially diluted in the same buffer, plated on Luria broth plates, and then incubated for 18 h at 37°C before the resulting colonies were counted. The bactericidal activity was expressed as the ratio of colonies counted to the number of colonies on a control plate. The 90% lethal concentration (LD90) is the concentration of the peptide at which 90% of viable cells are killed.
(§4) For the salt resistance assay, NaCl was included in the incubation buffer (1% MH or LB) over a range of concentrations (0, 50, 100, 150, and 200 mM NaCl) potentially present in the airway surface fluid of healthy subjects and patients with cystic fibrosis. For E. coli clinical isolates, the NaCl concentrations were increased to 0, 50, 100, 150, 200, 250, and 300 mM. The peptide concentration used in the salt dependence assay was 10 μg/ml, except for the 30 μg/ml concentration used against K. pneumonia ATCC 700603. Each assay was performed in triplicate. Bactericidal activity (the mean and standard deviation of three assays) was expressed as the ratio between the number of colonies counted and the number of colonies on a control plate.

[8] = system: E. coli ATCC 25922; type: cell-based, Escherichia coli; settings: 10^5-10^6 CFU/ml in PBS pH 7.2, 3 h at 37°C, colony count, mean ± SD of three
From the text: as §1, §2

[9] = system: P. Aeruginosa ATCC 15442; type: cell-based, Pseudomonas aeruginosa; settings: 10^5-10^6 CFU/ml in PBS pH 7.2, 3 h at 37°C, colony count, mean ± SD of three
From the text: as §1, §2

[10] = system: S. sonnei CICC 21535; type: cell-based, Shigella sonnei; settings: 10^5-10^6 CFU/ml in PBS pH 7.2, 3 h at 37°C, colony count, mean ± SD of three
From the text: as §1, §2

[11] = system: S. flexneri CICC 21534; type: cell-based, Shigella flexneri; settings: 10^5-10^6 CFU/ml in PBS pH 7.2, 3 h at 37°C, colony count, mean ± SD of three
From the text: as §1, §2

[12] = system: four Gram-positive and five Gram-negative bacteria; experiment: Salt resistance assay, summary over the nine tested strains; type: cell-based; settings: peptide 10 μg/ml (30 μg/ml K. pneumonia)
Experimental: as §3, §4

[13] = system: E. faecalis ATCC 29212; type: cell-based, Enterococcus faecalis; settings: 10^5-10^6 CFU/ml in PBS pH 7.2, 3 h at 37°C, colony count, mean ± SD of three
From the text: as §1, §2

Compound | LD90 (Mean ± SD) [1] | Concentration from which cytotoxicity starts [2] | LD90 (Mean ± SD) [3] | LD90 (Mean ± SD) [4] | LD90 (Mean ± SD) [5] | LD90 (Mean ± SD) [6] | Number of isolates in which 50% or more activity was retained ([7]; 200 mM NaCl) | LD90 (Mean ± SD) [8] | LD90 (Mean ± SD) [9] | LD90 (Mean ± SD) [10] | LD90 (Mean ± SD) [11] | Effect of NaCl on antibacterial activity ([12]; 50 mM NaCl, all the tested strains, except for E. coli) | Effect of NaCl on antibacterial activity ([12]; 200 mM NaCl versus 0 mM NaCl, P < 0.01) | LD90 (Mean ± SD) [13] | Number of isolates in which 50% or more activity was retained ([7]; 250 mM NaCl) | Number of isolates in which 50% or more activity was retained ([7]; 300 mM NaCl) | Effect of NaCl on antibacterial activity ([12]; 100 mM NaCl, all the tested strains, except for S. aureus)
CC[C@H](C)[C@H](NC(=O)[C@H](CCC(N)=O)NC(=O)[C@H](CCC(=O)O)NC(=O)[C@H](CCC(=O)O)NC(=O)[C@H](CCCCN)NC(=O)[C@@H]1CCCN1C(=O)[C@H](CC(C)C)NC(=O)[C@H](CS)NC(=O)[C@H](CO)NC(=O)[C@H](CC(C)C)NC(=O)[C@@H](NC(=O)[C@H](C)NC(=O)[C@H](CS)NC(=O)[C@H](CCCNC(=N)N)NC(=O)CNC(=O)CNC(=O)[C@H](CCCNC(=N)N)NC(=O)[C@@H](NC(=O)[C@H](CCCNC(=N)N)NC(=O)[C@H](CS)NC(=O)[C@@H](N)Cc1ccc(O)cc1)C(C)C)C(C)C)C(=O)NCC(=O)N[C@@H](CCCCN)C(=O)N[C@@H](CS)C(=O)N[C@@H](CO)C(=O)N[C@H](C(=O)N[C@@H](CCCNC(=N)N)C(=O)NCC(=O)N[C@@H](CCCNC(=N)N)C(=O)N[C@@H](CCCCN)C(=O)N[C@@H](CS)C(=O)N[C@@H](CS)C(=O)N[C@@H](CCCNC(=N)N)C(=O)N[C@@H](CCCNC(=N)N)C(=O)N[C@@H](CCCCN)C(=O)N[C@@H](CCCCN)C(=O)O)[C@@H](C)O [hBD-3Δ10] (H-YCRVRGGRCAVLSCLPKEEQIGKCSTRGRKCCRRKK-OH; N-terminus and C-terminus assumed) | more than 100 μg/ml | – | – | – | – | – | – | – | – | – | – | – | – | – | – | – | –
GIINTLQKYYCRVRGGRCAVLSCLPKEEQIGKCSTRGRKCCRRKK (cysteines drawn unpaired) [hBD-3, human beta-defensin 3] | 18.6 ± 2.8 µg/mL | higher than 20 μg/ml | 4.0 ± 0.8 µg/mL | 3.5 ± 1.2 µg/mL | 1.6 ± 0.4 µg/mL | 2.3 ± 0.5 µg/mL | two | 8.0 ± 1.2 µg/mL | 6.8 ± 0.9 µg/mL | 4.0 ± 0.7 µg/mL | 3.7 ± 0.2 µg/mL | not or slightly inhibited | greatly inhibited | 2.4 ± 1.0 µg/mL | – | – | –
NTLQKYYCRVRGGRCAVLSCLPKEEQIGKCSTRGRKCCRRKK (cysteines drawn unpaired) [hBD-3Δ4] | – | – | – | – | – | – | 14 isolates | – | – | – | – | – | – | – | 8 isolates | 5 isolates | almost the same antimicrobial activity as it would have in the absence of NaCl
